Data published in paper PMC10541198, “Specific quinone reductase 2 inhibitors reduce metabolic burden and reverse Alzheimer’s disease phenotype in mice” (The Journal of Clinical Investigation, 2023).
“And” between values parts separate entries of the source, which are not always exact repeats. Equal values may be shown once.

Legend:
QR2 = assay: Immunoblot of QR2 in HCT116 cells after 4-day treatment; assay type: cell-based, human; settings: 2 μM, 4 days; for QR2 expression, mean ± SEM (vehicle = 1): HCT116, n=6
Method: To establish direct target engagement and cell membrane permeability, a cellular thermal shift assay (CETSA) was carried out, using leading QR2is YB’s-537, 800, and 808. Following a 1 hour preincubation with 5 μM of the QR2is or vehicle, thermal aggregation curves (Taggs) of QR2 expressed in HEK293T were measured in increasing temperatures. All QR2is increased QR2 thermal stability compared with vehicle (Supplemental Figure 2A). Based on the Tagg curves we selected 73°C for isothermal dose-response fingerprint (IDTRF) experiments (Supplemental Figure 2B). The ITDRF allowed the relative quantification of the binding of each of the QR2is to QR2, measured as the EC50 (Figure 3A). […] We evaluated the safety of the QR2is using cell toxicity and viability assays. […] Cell viability was assessed by XTT assay in HEK239T cells, using a dose response, with 3- or 24-hour incubations of the leading QR2is. No sign of toxicity was seen (Figure 3C). Next, we wanted to assess if, similar to QR2 KO, QR2is can reduce cellular ROS in HCT116 cells and see whether any observable effect is occluded in QR2Δ cells. […] We then assessed WT HCT116 cells by immunoblot (Supplemental Figure 2, C and D), after being treated with YB-800 (2 μM) for 4 consecutive days.
H2DCFDA ROS assay was carried out according to established protocols, with some adjustment (Supplemental Methods) ([6]). Cell toxicity was measured via ATP depletion (CellTiter Glo, Promega) in THLE-2 cells (ATCC, CRL-2706), following 72 hours of exposure to the test compounds, and cell viability was assessed using XTT assay (Biological Industries) according to manufacturers protocols. […]
(Ser51) eIF2α (1:1000, Cell Signaling, 9721), diluted in blocking buffer. The ne xt day, the m em br anes w e re washed three times in TBST and incubated at room temperature (RT) for 1 h with 1:10,000 secondary antibodies conjugated to horseradish peroxidase, and following a further t hr e e times washes in TBSTwere immunoblotted with Westar Supernova (Cyanagen), imaged using a charge-coupled device camera and analyzed using Quantity One software (Bio-Rad). […]

5xFAD mice = assay: General wellbeing / adverse effects during 1 month ingestion; assay type: in vivo, mouse; settings: 8-to-9-month-old 5xFAD, both sexes, 50 mg/kg in drinking water, month-long
Method: We next aimed to test the effect of QR2 inhibition in AD model mice using YB-537, taking advantage of its extremely high specificity, solubility, and lack of toxicity. First, we determined YB-537 pharmacokinetics (PK) and oral bioavailability and assessed any acute observable toxicity in mice. […] We therefore opted to chronically deliver YB-537 to AD-model mice via their drinking water, so they may freely ingest the inhibitor at 50 mg/kg, with minimal intervention or trauma, for 1 month. We chose 9-month-old 5xFAD ([27]) male and female mice in double-blind experiments, so that well-progressed symptoms and pathologies would be present, to mimic clinically relevant cases in human patients ([35]), as has been previously described in this mouse model. Other than an improvement in nest quality ([36]) over time seen in animals receiving YB-537 (starting at age 8 months and ending at age 9 months), no changes to general physical parameters or wellbeing were observed over the 1 month of YB-537 ingestion (Supplemental Figure 6, A–J). […] Since learning in this paradigm was slow, and performance was poor even following 6 days of training (using 4 learning trials a day), a test day was not carried out and instead only the learning rate was measured. […]

Row | SMILES | QR2 expression (replicates) (QR2; HCT116) | QR2 expression, mean ± SEM (vehicle = 1) (QR2) | QR2 expression, mean ± SEM (vehicle = 1) (QR2; listed as NG800) | adverse effects of chronic ingestion (5xFAD mice)
1 | Cc1ccc(-c2cn3cccc(C)c3n2)cc1S(=O)(=O)N1CCC(C)CC1 [YB-800] | 1.514 and 1.125 and 1.62 and 0.8886 and 0.7618 and 1.183 | unchanged | 1.182 ± 0.137 | 
2 | Cc1ccc(-c2cn3cccc(C)c3n2)cc1S(=O)(=O)N1CCNCC1 [YB-537] |  |  |  | no adverse effects were seen
